Results from US20130261077A1 (priority 2012, published 2013).

Biological target: T1, FimH-CRD (Escherichia coli, UniProt P08191)
T1 construct: The first 177 amino acids of the FimH protein; thrombin tag (printed as 'fusion protein with thrombin') (cleaved yes); made in house; host or cells: bacteria (pET21b plasmid)
Assay: Competitive binding assay by fluorescence polarization, assay 2 (compounds prepared by robotics, plates frozen and thawed)
Method in brief: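 Fluorescence-polarization competition of 5 nM Alexa 647 mannoside probe with 60 nM FimH-CRD (first 177 residues, tag removed) in Tris-Cl pH 7.0, NaCl, EDTA, β-ME, BSA, 2.5% DMSO, 5 h at RT in the dark. Twelve-point 3-fold titrations (0.4 nM–75 μM) in duplicate; Kd interpolated from displacement curves.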

T1 sequence (P08191 22-177): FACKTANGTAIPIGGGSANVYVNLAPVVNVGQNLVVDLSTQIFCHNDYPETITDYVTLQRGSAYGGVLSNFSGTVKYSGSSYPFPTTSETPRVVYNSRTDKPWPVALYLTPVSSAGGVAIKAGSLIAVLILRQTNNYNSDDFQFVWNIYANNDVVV

## CNC(=O)c1ccc(Oc2cc(C)cc([C@H]3O[C@H](CO)[C@@H](O)[C@H](O)[C@@H]3O)c2)cc1 [Compound 199, N-methyl-4-[3-methyl-5-[(2R,3S,4R,5S,6R)-3,4,5-trihydroxy-6-(hydroxymethyl)tetrahydropyran-2-yl]phenoxy]benzamide]
  Kd: 8.3 ± 2.2 nM

## CNC(=O)c1cccc(Oc2cccc([C@H]3O[C@H](CO)[C@@H](O)[C@H](O)[C@@H]3O)c2F)c1 [Compound 200, 3-[2-fluoro-3-[(2R,3S,4R,5S,6R)-3,4,5-trihydroxy-6-(hydroxymethyl)tetrahydropyran-2-yl]phenoxy]-N-methyl-benzamide]
  Kd: 8.4 ± 0.8 nM

## CNC(=O)c1cccc(Oc2ccc(OC(F)(F)F)c([C@H]3O[C@H](CO)[C@@H](O)[C@H](O)[C@@H]3O)c2)c1 [Compound 201, N-methyl-3-[4-(trifluoromethoxy)-3-[(2R,3S,4R,5S,6R)-3,4,5-trihydroxy-6-(hydroxymethyl)tetrahydropyran-2-yl]phenoxy]benzamide]
  Kd: 103 ± 1.8 nM

## CNC(=O)c1cccc(Oc2ccc(F)c([C@H]3O[C@H](CO)[C@@H](O)[C@H](O)[C@@H]3O)c2)c1 [Compound 202, 3-[4-fluoro-3-[(2R,3S,4R,5S,6R)-3,4,5-trihydroxy-6-(hydroxymethyl)tetrahydropyran-2-yl]phenoxy]-N-methyl-benzamide]
  Kd: 19.2 ± 3.8 nM

## CNC(=O)c1cccc(Oc2cc([C@H]3O[C@H](CO)[C@@H](O)[C@H](O)[C@@H]3O)ccc2F)c1 [Compound 203, 3-[2-fluoro-5-[(2R,3S,4R,5S,6R)-3,4,5-trihydroxy-6-(hydroxymethyl)tetrahydropyran-2-yl]phenoxy]-N-methyl-benzamide]
  Kd: 9.2 ± 1.2 nM

## CNC(=O)c1cccc(Oc2cc(C)cc([C@H]3O[C@H](CO)[C@@H](O)[C@H](O)[C@@H]3O)c2)c1 [Compound 204, N-methyl-3-[3-methyl-5-[(2R,3S,4R,5S,6R)-3,4,5-trihydroxy-6-(hydroxymethyl)tetrahydropyran-2-yl]phenoxy]benzamide]
  Kd: 10.6 ± 0.9 nM

## OC[C@H]1O[C@H](c2ccc(Oc3ccccc3)cc2)[C@@H](O)[C@@H](O)[C@@H]1O [Compound 205, (2R,3S,4R,5S,6R)-2-(hydroxymethyl)-6-(4-phenoxyphenyl)tetrahydropyran-3,4,5-triol]
  Kd: 38.7 ± 16.2 nM

## OC[C@H]1O[C@H](c2cccc(OCCF)c2)[C@@H](O)[C@@H](O)[C@@H]1O [Compound 206, (2R,3S,4R,5S,6R)-2-[3-(2-fluoroethoxy)phenyl]-6-(hydroxymethyl)tetrahydropyran-3,4,5-triol]
  Kd: 28.4 ± 6.2 nM

## CCC(C)COc1cccc(C2O[C@H](CO)[C@@H](O)[C@H](O)[C@@H]2O)c1 (stereo partly shown) [Compound 207]
  Kd: 9.4 ± 4.3 nM

## OC[C@H]1OC(c2cccc(OCCCCC(F)(F)F)c2)[C@@H](O)[C@@H](O)[C@@H]1O (stereo partly shown) [Compound 209]
  Kd: 12.5 ± 5.3 nM

## OC[C@H]1OC(c2cccc(OCC3CCO3)c2)[C@@H](O)[C@@H](O)[C@@H]1O (stereo partly shown) [Compound 210]
  Kd: 24.2 ± 1.3 nM

## COC(=O)c1ccc(COc2cccc(C3O[C@H](CO)[C@@H](O)[C@H](O)[C@@H]3O)c2)cc1 (stereo partly shown) [Compound 211]
  Kd: 8 ± 2.4 nM

## CNC(=O)COc1cccc(C2O[C@H](CO)[C@@H](O)[C@H](O)[C@@H]2O)c1 (stereo partly shown) [Compound 212]
  Kd: 18.9 ± 0.8 nM

## OC[C@H]1OC(c2cccc(OCc3ccc(-n4cncn4)cc3)c2)[C@@H](O)[C@@H](O)[C@@H]1O (stereo partly shown) [Compound 213]
  Kd: 9.3 ± 0.5 nM

## CC1(COc2cccc(C3O[C@H](CO)[C@@H](O)[C@H](O)[C@@H]3O)c2)COC1 (stereo partly shown) [Compound 214]
  Kd: 12 ± 7.9 nM

## OC[C@H]1OC(c2cccc(OCC3CCCCC3)c2)[C@@H](O)[C@@H](O)[C@@H]1O (stereo partly shown) [Compound 215]
  Kd: 13.1 ± 3.9 nM

## OC[C@H]1OC(c2cccc(OCCC3CCCCC3)c2)[C@@H](O)[C@@H](O)[C@@H]1O (stereo partly shown) [Compound 216]
  Kd: 16.4 ± 5.2 nM

## OC[C@H]1OC(c2cccc(OCCCc3ccccc3)c2)[C@@H](O)[C@@H](O)[C@@H]1O (stereo partly shown) [Compound 217]
  Kd: 12.1 ± 7.6 nM

## O=C(COc1cccc(C2O[C@H](CO)[C@@H](O)[C@H](O)[C@@H]2O)c1)C1CCCCC1 (stereo partly shown) [Compound 218]
  Kd: 8.7 ± 1.4 nM

## O=C(NCCCOc1cccc(C2O[C@H](CO)[C@@H](O)[C@H](O)[C@@H]2O)c1)c1ccccc1 (stereo partly shown) [Compound 219]
  Kd: 16.3 ± 5.1 nM

## OC[C@H]1OC(c2cccc(OCc3ccccc3-c3ccccc3)c2)[C@@H](O)[C@@H](O)[C@@H]1O (stereo partly shown) [Compound 220]
  Kd: 16.6 ± 4.4 nM

## Cc1nn(-c2ccccc2)nc1COc1cccc(C2O[C@H](CO)[C@@H](O)[C@H](O)[C@@H]2O)c1 (stereo partly shown) [Compound 221]
  Kd: 8.2 ± 0.5 nM

## OC[C@H]1OC(c2cccc(OCc3ccccc3)c2)[C@@H](O)[C@@H](O)[C@@H]1O (stereo partly shown) [Compound 222]
  Kd: 40.7 ± 1.2 nM

## COC(=O)c1cccc(COc2cccc(C3O[C@H](CO)[C@@H](O)[C@H](O)[C@@H]3O)c2)c1 (stereo partly shown) [Compound 223]
  Kd: 23.2 ± 1.6 nM

## CNC(=O)c1ccc(COc2cccc(C3O[C@H](CO)[C@@H](O)[C@H](O)[C@@H]3O)c2)cc1 (stereo partly shown) [Compound 225]
  Kd: 34.5 ± 12.3 nM

## OC[C@H]1OC(c2cccc(OCc3cc(Cl)cc(Cl)c3)c2)[C@@H](O)[C@@H](O)[C@@H]1O (stereo partly shown) [Compound 226]
  Kd: 32.1 ± 8.9 nM

## CNC(=O)c1cccc(COc2cccc([C@H]3O[C@H](CO)[C@@H](O)[C@H](O)[C@@H]3O)c2)c1 [Compound 227, N-methyl-3-[[3-[(2R,3S,4R,5S,6R)-3,4,5-trihydroxy-6-(hydroxymethyl)tetrahydropyran-2-yl]phenoxy]methyl]benzamide]
  Kd: 37.1 ± 15.4 nM

## Cc1cccc(COc2ccc(C3O[C@H](CO)[C@@H](O)[C@H](O)[C@@H]3O)cc2)n1 (stereo partly shown) [Compound 228]
  Kd: 9.2 ± 0.04 nM

## CCC#CCOc1ccc(C2O[C@H](CO)[C@@H](O)[C@H](O)[C@@H]2O)cc1 (stereo partly shown) [Compound 229]
  Kd: 33.1 ± 4 nM

## N#CCCCOc1ccc(C2O[C@H](CO)[C@@H](O)[C@H](O)[C@@H]2O)cc1 (stereo partly shown) [Compound 230]
  Kd: 13.9 ± 3.6 nM

## CC[C@H](C)COc1ccc(C2O[C@H](CO)[C@@H](O)[C@H](O)[C@@H]2O)cc1 (stereo partly shown) [Compound 231]
  Kd: 8.9 ± 1.4 nM

## CC(C)CCOc1ccc(C2O[C@H](CO)[C@@H](O)[C@H](O)[C@@H]2O)cc1 (stereo partly shown) [Compound 232]
  Kd: 8.5 ± 4.2 nM

## COCCCOc1ccc(C2O[C@H](CO)[C@@H](O)[C@H](O)[C@@H]2O)cc1 (stereo partly shown) [Compound 233]
  Kd: 10.3 ± 3.9 nM

## OC[C@H]1OC(c2ccc(OCCCCF)cc2)[C@@H](O)[C@@H](O)[C@@H]1O (stereo partly shown) [Compound 234]
  Kd: 11.4 ± 4.5 nM

## O=C(COc1ccc(C2O[C@H](CO)[C@@H](O)[C@H](O)[C@@H]2O)cc1)C1CC1 (stereo partly shown) [Compound 235]
  Kd: 14.1 ± 0.3 nM

## OC[C@H]1OC(c2ccc(OCC3CCOCC3)cc2)[C@@H](O)[C@@H](O)[C@@H]1O (stereo partly shown) [Compound 236]
  Kd: 11.5 ± 4.6 nM

## OC[C@H]1OC(c2ccc(OCc3ccc(F)cc3)cc2)[C@@H](O)[C@@H](O)[C@@H]1O (stereo partly shown) [Compound 237]
  Kd: 7.9 ± 1.6 nM

## OC[C@H]1OC(c2ccc(OCCc3cccc(F)c3)cc2)[C@@H](O)[C@@H](O)[C@@H]1O (stereo partly shown) [Compound 238]
  Kd: 9.7 nM

## COc1ccc(CCOc2ccc(C3O[C@H](CO)[C@@H](O)[C@H](O)[C@@H]3O)cc2)cc1 (stereo partly shown) [Compound 239]
  Kd: 7.7 ± 0.05 nM

## OC[C@H]1OC(c2ccc(OCc3cccc4cccnc34)cc2)[C@@H](O)[C@@H](O)[C@@H]1O (stereo partly shown) [Compound 240]
  Kd: 7.6 ± 0.9 nM

## CC(C)(C)c1ccc(COc2ccc(C3O[C@H](CO)[C@@H](O)[C@H](O)[C@@H]3O)cc2)cc1 (stereo partly shown) [Compound 241]
  Kd: 10.2 ± 0.8 nM

## COc1ccccc1NC(=O)COc1ccc(C2O[C@H](CO)[C@@H](O)[C@H](O)[C@@H]2O)cc1 (stereo partly shown) [Compound 242]
  Kd: 21.5 ± 3.9 nM

## COC(=O)CCCOc1ccc(C2O[C@H](CO)[C@@H](O)[C@H](O)[C@@H]2O)cc1 (stereo partly shown) [Compound 243]
  Kd: 5.8 nM

## OC[C@H]1OC(c2ccc(OCc3ccc4ccccc4c3)cc2)[C@@H](O)[C@@H](O)[C@@H]1O (stereo partly shown) [Compound 244]
  Kd: 23.3 ± 1.1 nM

## OC[C@H]1OC(c2ccc(OCc3ccccc3)cc2)[C@@H](O)[C@@H](O)[C@@H]1O (stereo partly shown) [Compound 245]
  Kd: 22.8 ± 2.4 nM

## COC(=O)c1cccc(COc2ccc(C3O[C@H](CO)[C@@H](O)[C@H](O)[C@@H]3O)cc2)c1 (stereo partly shown) [Compound 246]
  Kd: 23.6 ± 5.5 nM

## O=C(O)c1cccc(COc2ccc(C3O[C@H](CO)[C@@H](O)[C@H](O)[C@@H]3O)cc2)c1 (stereo partly shown) [Compound 247]
  Kd: 32 ± 5.1 nM

## CNC(=O)c1ccc(COc2ccc(C3O[C@H](CO)[C@@H](O)[C@H](O)[C@@H]3O)cc2)cc1 (stereo partly shown) [Compound 249]
  Kd: 19.6 ± 10.2 nM

## OC[C@H]1OC(c2ccc(OCc3cc(Cl)cc(Cl)c3)cc2)[C@@H](O)[C@@H](O)[C@@H]1O (stereo partly shown) [Compound 250]
  Kd: 40.6 ± 23.4 nM

## OC[C@H]1OC(c2ccc(OCc3cccc4nonc34)cc2)[C@@H](O)[C@@H](O)[C@@H]1O (stereo partly shown) [Compound 251]
  Kd: 29.9 ± 13.9 nM

## OC[C@H]1O[C@H](c2cccc(Oc3ccncc3)c2)[C@@H](O)[C@@H](O)[C@@H]1O [Compound 252, (2R,3S,4R,5S,6R)-2-(hydroxymethyl)-6-[3-(4-pyridyloxy)phenyl]tetrahydropyran-3,4,5-triol]
  Kd: 13.2 ± 2.2 nM

## OC[C@H]1O[C@H](c2cccc(Oc3nc4ccccc4s3)c2)[C@@H](O)[C@@H](O)[C@@H]1O [Compound 253, (2R,3S,4R,5S,6R)-2-[3-(1,3-benzothiazol-2-yloxy)phenyl]-6-(hydroxymethyl)tetrahydropyran-3,4,5-triol]
  Kd: < 5 nM

## OC[C@H]1OC(c2cccc(Oc3ccnc4ccccc34)c2)[C@@H](O)[C@@H](O)[C@@H]1O (stereo partly shown) [Compound 254]
  Kd: 7.9 nM

## OC[C@H]1O[C@H](c2cccc(Oc3ncccn3)c2)[C@@H](O)[C@@H](O)[C@@H]1O [Compound 256, (2R,3S,4R,5S,6R)-2-(hydroxymethyl)-6-(3-pyrimidin-2-yloxyphenyl)tetrahydropyran-3,4,5-triol]
  Kd: 67.6 ± 21.8 nM

## O=[N+]([O-])c1ccc(Oc2cccc([C@H]3O[C@H](CO)[C@@H](O)[C@H](O)[C@@H]3O)c2)cn1 [Compound 257, (2R,3S,4R,5S,6R)-2-(hydroxymethyl)-6-[3-[(6-nitro-3-pyridyl)oxy]phenyl]tetrahydropyran-3,4,5-triol]
  Kd: 19.2 ± 6.3 nM
